# Read-outs that look alike come from different tables or passages of the source.
# How the values were obtained:
# [1] = Method: The determination of what constitutes initial amount and final amount shall be made using the same experimental techniques. In the experiments presented below, initial and final amounts of degradation products were determined using HPLC as an exemplary measurement technique.
# High pressure liquid chromatography (HPLC) elution profiles obtained from a 100×4.6 mm Phenomenex Kinetex column of XB-C18 silica (5 μm particle size) eluted with a linear gradient of solvent B (acetonitrile containing 0.1% v/v acetic acid) 10% to 50% in solvent A (water containing 0.1% v/v acetic acid) from 0.8 to 7.8 min, returning to 10% B at 8.8 min. Peaks were detected by UV absorption at […] wavelength. Overloading sample sizes were used to facilitate the detection of small amounts of breakdown products. […] (FIG. 1A) or 25° C. (FIG. 1B).
# HPLC elution profiles were obtained as described for FIG. 1. […] (FIG. 2A) or 25° C. (FIG. 2B).
# HPLC elution profiles were obtained as described for FIG. 1. […] (FIG. 3A) or 25° C. (FIG. 3B).
# [2] = Solubility of melatonin in aqueous solubilizer mixtures (overnight end-over-end rotation, filtration, HPLC); assay type: physicochemical; conditions: 20% (w/w) aqueous glycofurol, 25 °C, aqueous with cosolvent or surfactant or cyclodextrin, thermodynamic from solid
# Description: Peaks were detected by UV absorption at 277 μm wavelength. […] To study the effect of adding DMSO to this medium, a medium consisting of 20% (w/w) glycofurol and 40% (w/w) DMSO in water was also prepared.
# [3] = cited from earlier work; for solubility of melatonin in DMSO: room temperature (20 or 25° C.)
# rat = conditions: oral; cited from earlier work
# [4] = test system: oxidative damage in certain model systems; conditions: certain model systems (Oxenkrug 2005); cited from earlier work
# [5] = melatonin 10 mg/mL in 20% (w/w) aqueous glycofurol, 45 days at 25° C.
# [6] = melatonin 10 mg/mL in 20% (w/w) glycofurol, 40% (w/w) DMSO in water, 45 days at 25° C.
smiles,measurement,setting,value
"COc1ccc2[nH]cc(CCNC(C)=O)c2c1 [melatonin, N-acetyl-5-methoxytryptamine]",melatonin breakdown,"[1]; 20% (w/w) glycofurol, 40% (w/w) DMSO in water, 45 days at 25° C.",no evidence of the melatonin breakdown
same,melatonin breakdown,"[1]; 50% (w/w) DMSO, 45 days at 25° C.",no evidence of the melatonin breakdown
same,"degradation peaks (8.1, 8.4 and 8.6 min) together, share of the recovered UV-absorbent material","[1]; 45 days, 10 mg/mL",0.36%
same,melatonin peak at 6.0 min,"[1]; melatonin 10 mg/mL in 20% (w/w) aqueous glycofurol, 45 days at 5° C.",5871 absorption units
same,additional peak at 8.4 min not seen in the 5° C. sample,[1]; [5],8.314 absorption units
same,additional peak at 8.6 min not seen in the 5° C. sample,[1]; [5],5 absorption units
same,additional peak at […] not seen in the 5° C. sample,[1]; [5],7.973 absorption units
same,melatonin peak at 6.0 min,[1]; [5],5831 absorption units
same,melatonin peak at 6.0 min,"[1]; melatonin 10 mg/mL in 20% (w/w) glycofurol, 40% (w/w) DMSO in water, 45 days at 5° C.",6831 absorption units
same,additional peaks of UV-absorbent material,[1]; [6],no additional peaks
same,melatonin peak at 6.0 min,[1]; [6],6851 absorption units
same,melatonin peak at 6.0 min,"[1]; melatonin 10 mg/mL in 50% (w/w) aqueous DMSO, 45 days at 5° C.",8771 absorption units
same,additional peaks,"[1]; melatonin 10 mg/mL in 50% (w/w) aqueous DMSO, 45 days at 5° C. or 25° C.",No additional peaks
same,melatonin peak at 6.0 min,"[1]; melatonin 10 mg/mL in 50% (w/w) aqueous DMSO, 45 days at 25° C.",8771 absorption units
same,decline in the melatonin concentrations,"[1]; solutions 1), 2) and 3), sealed tubes, 25° C., HPLC on days 0, 10, 17, 31 and 45",no significant decline
same,solubility,[2],> 10 mg/mL
same,solubility of melatonin in ethanol,"[3]; 20° C., EC SCCS/1315/10, 2010",182 mg/mL
same,solubility of melatonin in ethanol/water (40/60 v/v) mixture,[3]; 20° C.,64 mg/mL
same,solubility of melatonin in water,[3]; 20° C.,approximately 2 g/L
same,solubility of melatonin in water,[3]; 50° C.,~5 mg/mL
same,solubility of melatonin in DMSO,[3]; source MedChem,≤ 200 mM
same,solubility of melatonin in DMSO,[3]; source abcam,≤ 100 mM
same,solubility of melatonin in DMSO,[3]; source tocris,≤ 50 mM
"C[S+](C)[O-] [DMSO, dimethyl sulfoxide]",LD50,rat,14500 mg/kg
CC(=O)NCCc1c[nH]c2ccc(O)cc12 [N-acetylserotonin],"protective effect against oxidative damage, times as strong as that of melatonin",[4],5 to 20 times
CCO [ethanol],LD50,rat,7060 mg/kg

# Source: patent US20260041774A1 (RepoCeuticals A/S, priority 2017, published 2026)
